Columns and labels:
Conditions in all cases: Compound concentration 10 µM
[1] = biological target: Sodium-dependent serotonin transporter (Homo sapiens) (UniProt P31645)
[2] = biological target: 5-hydroxytryptamine receptor 1B (Homo sapiens) (UniProt P28222)
[3] = biological target: Sodium-dependent noradrenaline transporter (Homo sapiens) (UniProt P23975)
[4] = biological target: T1, Muscarinic acetylcholine receptor M5 (Homo sapiens) (UniProt P08912)
T1 sequence (whole entry): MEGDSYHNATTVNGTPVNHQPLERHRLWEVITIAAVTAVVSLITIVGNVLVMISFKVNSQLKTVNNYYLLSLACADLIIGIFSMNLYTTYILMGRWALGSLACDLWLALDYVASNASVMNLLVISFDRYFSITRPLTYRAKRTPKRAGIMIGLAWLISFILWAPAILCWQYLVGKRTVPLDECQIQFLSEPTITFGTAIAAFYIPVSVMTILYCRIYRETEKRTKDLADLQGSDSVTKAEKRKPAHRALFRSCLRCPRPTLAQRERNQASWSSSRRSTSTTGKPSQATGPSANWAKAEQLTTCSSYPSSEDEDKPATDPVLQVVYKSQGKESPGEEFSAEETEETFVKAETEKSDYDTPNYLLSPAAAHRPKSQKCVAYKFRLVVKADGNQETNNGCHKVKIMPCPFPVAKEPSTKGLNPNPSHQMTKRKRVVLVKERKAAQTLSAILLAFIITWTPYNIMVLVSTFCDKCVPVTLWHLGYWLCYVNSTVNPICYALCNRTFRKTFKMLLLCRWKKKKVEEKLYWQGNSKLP

[5] = biological target: D(1B) dopamine receptor (Homo sapiens) (UniProt P21918)
[6] = biological target: 5-hydroxytryptamine receptor 6 (Homo sapiens) (UniProt P50406)
[7] = biological target: Delta-type opioid receptor (Homo sapiens) (UniProt P41143)
Sequence of Delta-type opioid receptor (Homo sapiens) (P41143 whole entry): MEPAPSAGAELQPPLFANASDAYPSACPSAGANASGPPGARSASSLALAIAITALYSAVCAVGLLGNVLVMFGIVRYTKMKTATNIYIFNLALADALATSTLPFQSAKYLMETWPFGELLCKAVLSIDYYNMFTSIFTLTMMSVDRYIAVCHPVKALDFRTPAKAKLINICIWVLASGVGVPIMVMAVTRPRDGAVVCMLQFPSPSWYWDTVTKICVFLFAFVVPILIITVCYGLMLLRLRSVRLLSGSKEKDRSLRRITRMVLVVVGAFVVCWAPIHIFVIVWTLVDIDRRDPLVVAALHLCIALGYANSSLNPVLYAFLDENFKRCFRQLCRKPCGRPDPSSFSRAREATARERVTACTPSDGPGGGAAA

[8] = biological target: 5-hydroxytryptamine receptor 7 (Homo sapiens) (UniProt P34969)
Sequence of 5-hydroxytryptamine receptor 7 (Homo sapiens) (P34969 whole entry): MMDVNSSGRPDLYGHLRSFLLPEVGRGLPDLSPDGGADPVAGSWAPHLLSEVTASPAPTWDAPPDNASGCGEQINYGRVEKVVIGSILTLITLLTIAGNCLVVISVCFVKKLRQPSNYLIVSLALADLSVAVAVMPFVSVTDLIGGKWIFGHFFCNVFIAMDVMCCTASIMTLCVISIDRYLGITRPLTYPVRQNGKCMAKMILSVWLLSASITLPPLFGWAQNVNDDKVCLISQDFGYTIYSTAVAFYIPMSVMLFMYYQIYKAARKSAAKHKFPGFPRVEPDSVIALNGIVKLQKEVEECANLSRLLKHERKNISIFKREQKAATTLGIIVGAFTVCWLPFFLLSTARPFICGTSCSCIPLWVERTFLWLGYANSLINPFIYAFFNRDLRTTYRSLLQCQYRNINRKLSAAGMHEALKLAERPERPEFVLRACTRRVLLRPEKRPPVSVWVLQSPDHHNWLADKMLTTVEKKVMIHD

[9] = biological target: Sigma intracellular receptor 2 (Homo sapiens) (UniProt Q5BJF2)
Sequence of Sigma intracellular receptor 2 (Homo sapiens) (Q5BJF2 whole entry): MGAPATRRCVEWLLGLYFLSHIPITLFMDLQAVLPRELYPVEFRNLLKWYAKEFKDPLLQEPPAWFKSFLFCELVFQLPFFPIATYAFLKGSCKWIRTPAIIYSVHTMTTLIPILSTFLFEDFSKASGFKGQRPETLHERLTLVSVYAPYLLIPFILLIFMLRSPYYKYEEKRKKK

[10] = biological target: 5-hydroxytryptamine receptor 1D (Homo sapiens) (UniProt P28221)
[11] = biological target: T2, Alpha-2A adrenergic receptor (Homo sapiens) (UniProt P08913)
T2 sequence (whole entry): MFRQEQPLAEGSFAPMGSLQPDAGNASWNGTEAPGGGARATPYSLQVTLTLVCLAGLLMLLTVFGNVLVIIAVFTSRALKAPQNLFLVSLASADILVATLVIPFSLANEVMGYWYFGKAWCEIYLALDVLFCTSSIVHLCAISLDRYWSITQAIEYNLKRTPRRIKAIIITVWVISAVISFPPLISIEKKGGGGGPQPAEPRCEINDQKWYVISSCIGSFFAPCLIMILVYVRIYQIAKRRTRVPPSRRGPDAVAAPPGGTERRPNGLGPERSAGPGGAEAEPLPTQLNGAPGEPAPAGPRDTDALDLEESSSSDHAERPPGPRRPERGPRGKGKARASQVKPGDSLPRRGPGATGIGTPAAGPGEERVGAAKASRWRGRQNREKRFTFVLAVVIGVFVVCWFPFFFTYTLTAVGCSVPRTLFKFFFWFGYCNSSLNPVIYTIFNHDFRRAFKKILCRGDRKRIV

[12] = biological target: D(1A) dopamine receptor (Homo sapiens) (UniProt P21728)
Sequence of D(1A) dopamine receptor (Homo sapiens) (P21728 whole entry): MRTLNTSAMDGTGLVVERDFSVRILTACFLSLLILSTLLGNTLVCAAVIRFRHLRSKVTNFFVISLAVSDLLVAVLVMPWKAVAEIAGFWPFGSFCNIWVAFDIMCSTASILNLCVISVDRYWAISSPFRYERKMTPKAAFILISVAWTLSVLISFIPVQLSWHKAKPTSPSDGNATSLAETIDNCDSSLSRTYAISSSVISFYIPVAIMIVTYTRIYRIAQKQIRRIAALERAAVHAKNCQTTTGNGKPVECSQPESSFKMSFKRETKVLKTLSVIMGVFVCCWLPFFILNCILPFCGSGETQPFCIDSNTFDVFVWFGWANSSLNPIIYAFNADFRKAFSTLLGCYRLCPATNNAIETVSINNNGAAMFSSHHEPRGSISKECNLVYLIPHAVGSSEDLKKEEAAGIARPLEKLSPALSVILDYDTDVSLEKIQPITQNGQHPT

[13] = biological target: D(2) dopamine receptor (Homo sapiens) (UniProt P14416)
Sequence of D(2) dopamine receptor (Homo sapiens) (P14416 whole entry): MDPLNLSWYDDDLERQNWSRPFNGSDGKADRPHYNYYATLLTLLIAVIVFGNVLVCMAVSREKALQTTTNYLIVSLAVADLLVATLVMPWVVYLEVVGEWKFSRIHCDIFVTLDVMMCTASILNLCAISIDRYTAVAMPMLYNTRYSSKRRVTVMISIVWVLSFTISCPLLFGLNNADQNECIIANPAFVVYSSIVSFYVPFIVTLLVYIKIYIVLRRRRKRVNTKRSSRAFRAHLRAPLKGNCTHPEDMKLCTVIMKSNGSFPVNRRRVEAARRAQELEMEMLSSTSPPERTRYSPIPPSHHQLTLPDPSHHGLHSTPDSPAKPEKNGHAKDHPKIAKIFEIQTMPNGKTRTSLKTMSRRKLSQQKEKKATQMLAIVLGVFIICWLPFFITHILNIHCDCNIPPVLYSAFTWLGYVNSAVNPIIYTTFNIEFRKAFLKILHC

[14] = biological target: Beta-2 adrenergic receptor (Homo sapiens) (UniProt P07550)
Sequence of Beta-2 adrenergic receptor (Homo sapiens) (P07550 whole entry, looked up): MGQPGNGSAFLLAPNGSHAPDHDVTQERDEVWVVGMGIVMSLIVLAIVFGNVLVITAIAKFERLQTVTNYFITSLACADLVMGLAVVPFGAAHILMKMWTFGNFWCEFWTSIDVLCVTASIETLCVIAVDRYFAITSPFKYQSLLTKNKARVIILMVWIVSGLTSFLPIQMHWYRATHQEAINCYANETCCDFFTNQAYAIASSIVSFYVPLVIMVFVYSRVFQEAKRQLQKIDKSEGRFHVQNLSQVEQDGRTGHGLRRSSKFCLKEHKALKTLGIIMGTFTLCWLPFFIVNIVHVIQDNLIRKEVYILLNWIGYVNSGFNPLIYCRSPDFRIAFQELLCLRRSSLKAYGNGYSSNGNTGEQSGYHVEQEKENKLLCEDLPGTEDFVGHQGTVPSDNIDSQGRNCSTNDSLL

[15] = biological target: D(3) dopamine receptor (Homo sapiens) (UniProt P35462)
Sequence of D(3) dopamine receptor (Homo sapiens) (P35462 whole entry): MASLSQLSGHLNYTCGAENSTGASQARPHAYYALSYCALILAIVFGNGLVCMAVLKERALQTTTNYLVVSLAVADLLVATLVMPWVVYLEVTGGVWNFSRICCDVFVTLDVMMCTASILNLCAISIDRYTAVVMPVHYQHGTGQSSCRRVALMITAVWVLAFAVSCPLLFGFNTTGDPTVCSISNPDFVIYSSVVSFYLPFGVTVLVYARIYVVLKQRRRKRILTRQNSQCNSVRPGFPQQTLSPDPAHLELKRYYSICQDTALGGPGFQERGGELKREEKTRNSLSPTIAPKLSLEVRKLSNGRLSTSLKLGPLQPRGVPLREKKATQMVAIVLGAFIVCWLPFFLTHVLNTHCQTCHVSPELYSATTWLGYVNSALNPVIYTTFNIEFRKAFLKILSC

[16] = biological target: 5-hydroxytryptamine receptor 1E (Homo sapiens) (UniProt P28566)
Sequence of 5-hydroxytryptamine receptor 1E (Homo sapiens) (P28566 whole entry): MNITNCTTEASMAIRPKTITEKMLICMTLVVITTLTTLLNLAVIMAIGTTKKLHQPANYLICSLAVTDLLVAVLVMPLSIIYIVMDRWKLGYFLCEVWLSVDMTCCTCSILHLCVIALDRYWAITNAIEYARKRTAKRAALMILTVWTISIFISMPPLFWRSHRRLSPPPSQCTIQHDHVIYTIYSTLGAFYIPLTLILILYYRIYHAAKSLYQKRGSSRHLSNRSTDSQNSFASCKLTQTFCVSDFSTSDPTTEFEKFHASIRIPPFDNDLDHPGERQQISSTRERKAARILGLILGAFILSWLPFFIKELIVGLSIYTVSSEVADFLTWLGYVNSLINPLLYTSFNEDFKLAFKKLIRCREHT

[17] = biological target: T3, Alpha-2C adrenergic receptor (Homo sapiens) (UniProt P18825)
T3 sequence (whole entry): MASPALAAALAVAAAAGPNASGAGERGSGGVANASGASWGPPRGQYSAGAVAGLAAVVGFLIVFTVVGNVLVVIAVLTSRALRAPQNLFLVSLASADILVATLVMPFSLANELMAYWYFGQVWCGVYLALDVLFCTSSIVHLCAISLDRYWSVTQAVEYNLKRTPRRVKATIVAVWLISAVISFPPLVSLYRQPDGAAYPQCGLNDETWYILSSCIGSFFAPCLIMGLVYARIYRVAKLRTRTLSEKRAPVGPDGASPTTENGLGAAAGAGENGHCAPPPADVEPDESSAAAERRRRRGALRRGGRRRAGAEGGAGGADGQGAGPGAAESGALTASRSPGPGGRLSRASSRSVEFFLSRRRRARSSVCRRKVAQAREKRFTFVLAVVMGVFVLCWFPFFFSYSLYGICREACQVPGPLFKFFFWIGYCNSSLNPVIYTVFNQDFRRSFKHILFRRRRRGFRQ

[18] = biological target: T4, 5-hydroxytryptamine receptor 1A (Homo sapiens) (UniProt P08908)
T4 sequence (whole entry): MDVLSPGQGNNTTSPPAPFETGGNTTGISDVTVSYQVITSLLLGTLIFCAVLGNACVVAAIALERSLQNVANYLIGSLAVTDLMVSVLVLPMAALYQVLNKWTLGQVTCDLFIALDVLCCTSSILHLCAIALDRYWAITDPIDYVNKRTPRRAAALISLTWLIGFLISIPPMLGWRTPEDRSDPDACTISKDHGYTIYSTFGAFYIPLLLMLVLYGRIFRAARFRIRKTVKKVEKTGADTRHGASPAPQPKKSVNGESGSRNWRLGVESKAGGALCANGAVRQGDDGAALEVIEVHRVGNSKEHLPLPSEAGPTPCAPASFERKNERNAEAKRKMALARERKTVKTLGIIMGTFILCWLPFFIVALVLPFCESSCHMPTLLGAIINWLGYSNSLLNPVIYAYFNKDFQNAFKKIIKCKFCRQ

[19] = biological target: Histamine H4 receptor (Homo sapiens) (UniProt Q9H3N8)
[20] = biological target: 5-hydroxytryptamine receptor 2A (Homo sapiens) (UniProt P28223)
Sequence of 5-hydroxytryptamine receptor 2A (Homo sapiens) (P28223 whole entry): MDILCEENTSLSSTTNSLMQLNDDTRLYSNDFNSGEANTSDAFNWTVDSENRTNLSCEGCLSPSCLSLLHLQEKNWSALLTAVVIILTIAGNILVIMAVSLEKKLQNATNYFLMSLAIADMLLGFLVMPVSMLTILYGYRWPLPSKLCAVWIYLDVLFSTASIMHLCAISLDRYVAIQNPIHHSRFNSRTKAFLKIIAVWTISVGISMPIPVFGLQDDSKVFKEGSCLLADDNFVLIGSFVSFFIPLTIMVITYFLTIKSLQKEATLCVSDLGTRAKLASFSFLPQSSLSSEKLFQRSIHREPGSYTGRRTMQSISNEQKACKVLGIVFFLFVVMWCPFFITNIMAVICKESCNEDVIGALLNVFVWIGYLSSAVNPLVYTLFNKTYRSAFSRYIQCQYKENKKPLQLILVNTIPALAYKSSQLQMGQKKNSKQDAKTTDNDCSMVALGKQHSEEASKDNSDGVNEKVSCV

[21] = biological target: Translocator protein (Homo sapiens) (UniProt P30536)
Sequence of Translocator protein (Homo sapiens) (P30536 whole entry): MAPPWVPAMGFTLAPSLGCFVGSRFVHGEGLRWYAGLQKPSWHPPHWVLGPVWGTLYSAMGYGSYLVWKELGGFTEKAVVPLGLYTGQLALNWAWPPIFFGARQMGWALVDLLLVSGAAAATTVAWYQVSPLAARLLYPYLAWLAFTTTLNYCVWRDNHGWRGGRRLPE

Sequence of Sodium-dependent noradrenaline transporter (Homo sapiens) (P23975 whole entry): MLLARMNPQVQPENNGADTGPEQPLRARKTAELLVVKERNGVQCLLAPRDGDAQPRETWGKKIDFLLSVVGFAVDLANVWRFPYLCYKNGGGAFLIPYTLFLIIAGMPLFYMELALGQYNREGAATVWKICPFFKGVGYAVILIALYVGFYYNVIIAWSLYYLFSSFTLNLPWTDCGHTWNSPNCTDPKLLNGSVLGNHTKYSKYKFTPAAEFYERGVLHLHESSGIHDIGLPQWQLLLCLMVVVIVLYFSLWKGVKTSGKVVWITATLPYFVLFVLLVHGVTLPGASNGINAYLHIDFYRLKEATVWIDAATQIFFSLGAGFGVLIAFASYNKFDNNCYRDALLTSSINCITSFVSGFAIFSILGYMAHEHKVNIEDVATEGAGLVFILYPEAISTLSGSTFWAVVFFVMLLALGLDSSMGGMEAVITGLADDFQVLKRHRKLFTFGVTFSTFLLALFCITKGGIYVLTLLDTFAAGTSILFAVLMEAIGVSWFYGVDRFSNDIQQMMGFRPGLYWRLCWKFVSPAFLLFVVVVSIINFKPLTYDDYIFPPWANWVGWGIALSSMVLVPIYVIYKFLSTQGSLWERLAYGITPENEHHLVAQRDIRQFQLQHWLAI
Sequence of 5-hydroxytryptamine receptor 1B (Homo sapiens) (P28222 whole entry): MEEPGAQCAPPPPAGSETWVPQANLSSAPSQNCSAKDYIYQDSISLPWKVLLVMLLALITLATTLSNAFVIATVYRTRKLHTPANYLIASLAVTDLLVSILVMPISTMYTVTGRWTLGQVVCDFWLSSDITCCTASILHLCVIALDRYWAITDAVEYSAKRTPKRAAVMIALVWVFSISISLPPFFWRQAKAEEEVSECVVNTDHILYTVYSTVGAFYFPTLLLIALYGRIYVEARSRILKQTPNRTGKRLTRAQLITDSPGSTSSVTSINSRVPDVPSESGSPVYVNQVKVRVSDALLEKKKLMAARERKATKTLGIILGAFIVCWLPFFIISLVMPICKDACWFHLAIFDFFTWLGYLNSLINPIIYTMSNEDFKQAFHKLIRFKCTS

Compound	inhibition [1]	inhibition [2]	inhibition [3]	inhibition [4]	inhibition [5]	inhibition [6]	inhibition [7]	inhibition [8]	inhibition [9]	inhibition [10]	inhibition [11]	inhibition [12]	inhibition [13]	inhibition [14]	inhibition [15]	inhibition [16]	inhibition [17]	inhibition [18]	inhibition [19]	inhibition [20]	further results
Cc1nn(C)c(C)c1-c1cccc2c1CC[C@H](N(C)C)C2	3.62%	91.5%	-2.38%	69.2%	26%	-8.86%	-4.68%	94.1%	79.1%	95.6%	89.8%	19.8%	32.7%	20.2%	-2.85%	47.5%	45.4%	51.8%	–	–	–
CS(=O)(=O)NC[C@H]1CC[C@H](Nc2nc3c(s2)CCSc2ccccc2-3)CC1	13.6%	–	7.48%	-4.92%	-6.36%	35%	4.54%	39.7%	81.4%	50.8%	0.86%	14.1%	4.83%	94.4%	67.2%	6.22%	37.1%	35.6%	-4.86%	23.7%	inhibition [21]: 35.9%
OCc1cc(C(O)CNCCCCCCOCCCCc2ccccc2)ccc1O (stereo not given)	91.4%	51.1%	98.7%	60.2%	19.6%	18%	5.6%	97.4%	102%	76.6%	58%	6.76%	10.9%	–	59.6%	17.4%	45.6%	27.8%	6.15%	78.2%	inhibition [21]: -0.39%
CCCCCCCCCCCCC/C=C/[C@@H](O)[C@@H](N)COP(=O)(O)O	-0.47%	8.79%	35.1%	6.31%	22.7%	3.57%	20.4%	16.1%	79.4%	63.5%	4.33%	2.88%	10.6%	–	1.79%	14.4%	-4.87%	-8.27%	7.9%	-3.21%	inhibition [21]: 64.6%
N#Cc1c[nH]c2c(C(=O)N3CCN(CCc4ccc(F)cc4)CC3)cccc12	60.4%	-5.18%	71.6%	-9.78%	8.62%	37.8%	–	50.6%	68.2%	61.7%	-0.21%	27.9%	7.47%	60.9%	10.4%	27.3%	38.2%	21.2%	-2.67%	100%	–
CCc1cc2c(cc1CC)CC(NC[C@H](O)c1ccc(O)c3[nH]c(=O)ccc13)C2	52.9%	34.4%	84.6%	37.8%	38.5%	–	1.1%	-0.79%	96.5%	118%	42.1%	11.9%	-7.35%	94.3%	58.8%	-6.64%	30%	1.29%	4.91%	61.1%	–
COc1ccc(NC(=O)c2ccc(-c3ccc(-c4noc(C)n4)cc3C)cc2)cc1OCCN(C)C	55.4%	101%	94%	37.9%	48.4%	–	0.83%	78.8%	84.2%	101%	99.4%	47.9%	34.6%	13.1%	33.1%	52.5%	79%	32.1%	49%	95.4%	inhibition [21]: 31.1%
COc1ccccc1N1CCN(CCCCNC(=O)c2ccc3ccccc3c2)CC1	83.7%	93.2%	68.2%	23.2%	–	37.4%	-2.88%	102%	96.4%	103%	100%	73.4%	91.8%	38.9%	–	27.8%	111%	108%	8.79%	-1.42%	inhibition [21]: 78.8%
Cc1ccc2c(c1)c1c(n2CCc2ccc(C)nc2)CCN(C)C1	-8.68%	74.3%	-7.44%	-2.89%	32.6%	90.6%	1.39%	90.7%	32.2%	70.8%	69.7%	39.2%	57.8%	-9.1%	72.3%	56.9%	73.6%	39.1%	–	84.6%	inhibition [21]: 11.9%

From ChEMBL document CHEMBL5442219
